Source: patent US8173148B2, “Stabilized polymeric delivery system comprising a water-insoluble polymer and an organic liquid” (priority 2004, dated 2012)

Key:
Type in all cases: physicochemical
[1] = Precipitation / formulation studies of GHRP-1/ATRIGEL formulations (Example 9); details: bulk GHRP-1 citrate solution, time needed for commercial manufacturing
Description: This formulation was identified as AL3922.02. […] Consequently, a fourth formulation (AL3922.04) was developed.
Table 1 summarizes the precipitation studies that were conducted for each formulation. The acronyms are identified as follows: GHRP-1 is a known […] mimicking growth hormone releasing peptide; DL2A is poly (DL) lactide-glycolide (75/25) having a terminal carboxyl group and an average molecular weight of about 13 kDa and an inherent viscosity of about 0.17 dL/g; NMP is N-methylpyrrolidone.

[2] = Degradation of PLGH by octreotide acetate in NMP, average molecular weight by GPC (Example 4); details: ambient temperature, 2 hours
Description: A solution of 34 wt % of 50/50 carboxyl terminated polylactide glycolide (PLGH at a 1:1 ratio of lactide to glycolide) in N-methylpyrrolidone (NMP) was prepared and divided into several aliquots. To a 950 mg aliquot was added 57.01 mg of octreotide acetate (OA) to provide a solution of 5.66 wt % octreotide acetate in a 34 wt % solution of PLGH in NMP. Upon standing at ambient temperature for 2 hours, the aliquot with OA and a control aliquot containing only PLGH and NMP were analyzed for average molecular weight of the PLGH by GPC analysis. The retention times were correlated against predetermined molecular weight standards of polylactide-glycolide which had been calibrated by GC-mass spectroscopy.

[3] = Effect of differing octreotide complexes on decomposition of PLGH in NMP, GPC (Example 7); details: 35 wt % 50/50 PLGH in NMP, over 25 days, FIG. 3
Description: Aliquots of a solution of 50/50 polylactide glycolide having an inherent viscosity of 0.57 dL/g and an average molecular weight of 45,000 were prepared so as to provide 35 wt % aliquots of the PLGH in N-methylpyrrolidone (NMP). To individual aliquots was added one of the following octreotide free base (OB)—complexes: OB-citrate; OB mesylate; OB-acetate; OB-Glucuronate. The OB-citrate complex was studied at several ratios: excess OB, 1:3 exchange, 1:1 exchange and citrate to pH 7. The average molecular weight of the PLGH in the solution was periodically determined over a period of 25 days by GPC analysis using pre-calibrated polylactide-glycolide standards for retention times. The following graph presents the results. […] The data determined by this experiment are presented graphically in FIG. 3.

Compound | drug precipitation / remaining in solution (Comments) [1] | average molecular weight of the PLGH ([2]; 5.66 wt % octreotide acetate in 34 wt % 50/50 PLGH in NMP, control aliquot 37,628 daltons) | degradation of the PLGH molecular weight ([2]; 34 wt % PLGH in NMP) | degradation of PLGH average molecular weight by octreotide complexes [3]
GHRP-1: growth hormone releasing peptide; seven amino acid peptide containing one lysine and one tryptophan (ATRIGEL) | tended to precipitate out of the solution over a couple of hours | – | – | –
C[C@@H](O)[C@@H]1NC(=O)[C@H](CCCCN)NC(=O)[C@@H](Cc2c[nH]c3ccccc23)NC(=O)[C@H](Cc2ccccc2)NC(=O)[C@@H](NC(=O)[C@H](N)Cc2ccccc2)CSSC[C@@H](C(=O)N[C@H](CO)[C@@H](C)O)NC1=O (relative stereo) [octreotide acetate, L-cysteinamide, D-phenylalanyl-L-cysteinyl-L-phenylalanyl-D-tryptophyl-L-lysyl-L-threonyl-N-[2-hydroxy-1-(hydroxymethyl)propyl]-, cyclic (2→7)-disulfide; [R—(R*,R*)]] | – | 20,173 daltons | significant degradation | immediate dramatic degradation
